Data published in patent US11065227B2, “Use of cannabinoids in the treatment of multiple myeloma” (GW Research Limited, priority 2016, dated 2021).
Where two headings read alike, the source gives them in different places.

Columns and labels:
[1] = tested on: U266 cell line; experiment: MTT cell viability assay, U266; conditions: Homo sapiens
Procedure: (§1) U266 and RPM18226 (RPMI) MM cell lines were purchased from ATCC (LGC Standards, Milan, IT). Cell authentication was performed by IST (Genova, Italy). Cell lines were cultured in RPMI1640 medium (Lonza, Milan, IT) supplemented with 10% foetal bovine serum (FBS), 2 mM L-glutamine, 100 IU/ml penicillin, 100 μg/ml streptomycin and 1 mM sodium pyruvate. Cell lines were maintained at 37° C. with 5% CO2 and 95% humidity.
(§2) U266 and RPMI cell lines (4×10^4 cells/ml) were seeded in 96-well plates, in a final volume of 100 μl/well. After 1 day of incubation, compounds or vehicles were added. At least four replicates were used for each treatment.
(§3) At the indicated time point, cell viability was assessed by adding 0.8 mg/ml of 3-[4,5-dimethylthiazol-2-yl]-2,5 diphenyl tetrazolium bromide (MTT) (Sigma Aldrich) to the media. […]
(§4) The absorbance of the samples against a background control (medium alone) was measured at 570 nm using an ELISA reader microliter plate (BioTek Instruments, Winooski, Vt., USA). Synergistic activity of the THC-CBD combinations was determined by the isobologram and combination index (CI) methods (CompuSyn Software, ComboSyn, Inc. Paramus, N J 2007). The CI was used to express synergism (CI<1), additivity (CI=1) or antagonism (CI>1) and was calculated according to the standard isobologram equation (Chou, 2006).

[2] = tested on: RPMI cell line; experiment: MTT cell viability assay, RPMI
Procedure: as §1, §2, §3, §4

[3] = tested on: U266 and RPMI cell lines; experiment: MTT cell viability assay, statements for both MM cell lines; conditions: for CB2 receptor dependence of cytotoxic effect: pre-treatment with 20 μM AM630 (CB2 antagonist), FIG. 2
Procedure: as §1, §2
At the indicated time point, cell viability was assessed by adding 0.8 mg/ml of 3-[4,5-dimethylthiazol-2-yl]-2,5 diphenyl tetrazolium bromide (MTT) (Sigma Aldrich) to the media. After 3 h, the plates were centrifuged, the supernatant was removed, and the pellet was solubilized with 100 μl/well DMSO.
as §4

[4] = tested on: LC3-II/LC3-1 and p62 in U266 and RPMI cell lines; experiment: Western blot of autophagy markers LC3 and p62; type: cell-based; conditions: 12.5 μM; 24 h of treatment; FIG. 4A
Procedure: (§5) U266 and RPMI cell lines were lysed in buffer containing protease inhibitor cocktail (Sigma Aldrich). Lysates were resolved by sodium dodecyl sulphate polyacrylamide gel (8-14%) and transferred onto Hybond-C extra membranes (GE Healthcare, Munich, Germany). Non-specific binding sites were blocked with 5% low-fat dry milk in phosphate-buffered saline 0.1% Tween 20 for 1 h.
(§6) Blots were incubated with the primary Abs: anti-iβ5 subunit (1:1000, Cell Signalling, Denver, Colo., USA), rabbit anti-LC3 (2 μg/ml, Novus Biologicals, Littleton, Colo., USA), rabbit anti-caspase-3 (1:1000, Cell Signalling), rabbit anti-p62 (1:1000, Cell Signalling), rabbit anti-H2AX (1:1000, Cell Signalling) and mouse anti-glyceraldehydes-3-phosphate dehydrogenase (GAPDH, 1:3000, OriGene, Rockville, Md., USA) Abs overnight and then incubated with their respective HRP-conjugated anti-mouse and anti-rabbit (1:2000, Cell Signalling) Abs for 1 h. The detection was performed using the LiteAblot PLUS or the LiteAblot TURBO (EuroClone, Milano, Italy) kits, and densitometric analysis was carried out by a Chemidoc using the Quantity One software (Bio-Rad, Hercules, Calif., USA).
These experiments investigated if the increase in sub-G1 cell accumulation by THC-CBD combination treatment was due to an autophagic-cell death process. […]

[5] = tested on: γ-H2AX (H2AX) in U266 and RPMI cell lines; experiment: Western blot of γ-H2AX; type: cell-based; conditions: 24 h post-treatments; both cell lines; FIG. 5C
Procedure: as §5, §6
The presence of γ-H2AX (H2AX), a phosphorylated variant of histone 2A that is associated with DNA double-strand breaks was investigated.

[6] = tested on: β5i subunit in U266 and RPMI cell lines; experiment: β5i mRNA by qRT-PCR after IFN-γ; type: cell-based; conditions: after 24 h IFN-γ (100 U/ml); 12.5 μM; respect to IFN-γ alone; FIG. 6A
[7] = tested on: β5i subunit in U266 and RPMI cell lines; experiment: β5i precursor and mature form by western blot after IFN-γ; type: cell-based; conditions: both cell lines, FIG. 6B
Procedure: as §5, §6
The potential role of the combination of THC-CBD in regulating the β5i subunit was investigated. U266 and RPMI cell lines were treated with CBD and THC, after 24 h exposure to IFN-γ (100 U/ml).

[8] = tested on: CXCR4 and CD147 in U266 and RPMI cell lines; experiment: CXCR4 and CD147 expression by qRT-PCR; type: cell-based; conditions: alone and in combination; qRT-PCR and FACS; MM cell lines
[9] = tested on: U266 and RPMI cell lines; experiment: Cell migration assay (SDF-1, eCyPA chemotaxis); type: cell-based; conditions: 24 h treatment; single and in combination; FIG. 8C
[10] = tested on: U266 cell line; conditions: Morelli et al. 2014, read-out: IC50, reducing cell viability; cited from earlier work
[11] = tested on: RPMI cell line; conditions: Morelli et al. 2014, read-out: IC50, reducing cell viability; cited from earlier work
[12] = tested on: U266; conditions: Morelli et al. 2014; cited from earlier work
[13] = tested on: RPMI; conditions: Morelli et al. 2014; cited from earlier work
[14] = tested on: U266 and RPMI cell lines; experiment: Cell cycle analysis by PI staining and FACS, both MM cell lines; type: cell-based; conditions: 12.5 μM, vs control, FIG. 3

Row | Compound | cytotoxicity at 12.5 µM ([1]; U-266, read-out: decrease in cell viability) [%] | cytotoxicity at 12.5 µM ([2]; read-out: decrease in cell viability) [%] | cytotoxic effects after pre-treatment with BAF1 [3] | CB2 receptor dependence of cytotoxic effect [3] | LC3-II/LC3-1 ratio [4] | levels of the phosphorylated form of H2AX [5] | β5i expression level (mRNA) induced by IFN-γ [6] | expression of precursor and mature form of β5i (protein) [7] | expression of CXCR4 and CD147 chemotactic receptors [8] | SDF-1-, eCyPA- and SDF-1/eCyPA-mediated chemotaxis compared with vehicle-treated cells [9] | IC50 [10] [µM] | IC50 [11] [µM] | blocking cell cycle in GO/G1 phase [12] [%] | blocking cell cycle in GO/G1 phase [13] [%] | cell viability ([3]; presence or absence of IFN-γ, 72 h post-treatment, data not shown) | IC50 ([1]; U-266, 72 h, read-out: IC50, cell viability) [µM] | IC50 ([2]; 72 h, read-out: IC50, cell viability) [µM] | accumulation in sub-G1 phase (hypodiploid DNA) ([14]; 48 h post-treatment) | cell accumulation in G1 phase ([14]; starting from 24 h post-treatment)
1 | C=C(C)[C@@H]1CCC(C)=C[C@H]1c1c(O)cc(CCCCC)cc1O [CBD, Cannabidiol] | 20 | 20 | reversed | not CB2 receptors dependent | slight increase | increase levels | low effects | low efficacy | reduce the expression | reduced | 19.8 | 22.4 | 38 | 42 | – | – | – | – | –
2 | CC(C)C[C@H](NC(=O)[C@H](CCc1ccccc1)NC(=O)CN1CCOCC1)C(=O)N[C@@H](Cc1ccccc1)C(=O)N[C@@H](CC(C)C)C(=O)[C@@]1(C)CO1 [CFZ, carfilzomib] | – | – | – | – | – | – | – | – | reduce the expression | reduced | – | – | – | – | reduced cell viability | – | – | – | –
3 | CCCCCc1cc(O)c2c(c1)OC(C)(C)[C@@H]1CCC(C)=C[C@@H]21 [THC, Tetrahydrocannabinol] | – | – | – | not CB2 receptors dependent | no effect | increase levels | low effects | low efficacy | reduce the expression | reduced | – | – | – | – | – | 39.5 | 30.8 | accumulation in sub-G1 phase | induce cell accumulation in G1 phase
